This passage reports IC50 results from PubChem BioAssay AID602168 (The Scripps Research Institute Molecular Screening Center, 2012).

Calls of active or inactive are those of the source. The rule behind the calls is not given here.

The target of this assay is Nuclear receptor coactivator 1 (Homo sapiens) (UniProt Q15788). The experiment in a line: NCOA1 reporter inhibition potency – cell-based, luminescence, counter-screen for SRC3 inhibitor project, dose response (AID 602168). The settings on record: Cell-based SRC1 luciferase reporter.
Nuclear receptor coactivator 1 (Homo sapiens), sequence (Q15788 whole entry, looked up): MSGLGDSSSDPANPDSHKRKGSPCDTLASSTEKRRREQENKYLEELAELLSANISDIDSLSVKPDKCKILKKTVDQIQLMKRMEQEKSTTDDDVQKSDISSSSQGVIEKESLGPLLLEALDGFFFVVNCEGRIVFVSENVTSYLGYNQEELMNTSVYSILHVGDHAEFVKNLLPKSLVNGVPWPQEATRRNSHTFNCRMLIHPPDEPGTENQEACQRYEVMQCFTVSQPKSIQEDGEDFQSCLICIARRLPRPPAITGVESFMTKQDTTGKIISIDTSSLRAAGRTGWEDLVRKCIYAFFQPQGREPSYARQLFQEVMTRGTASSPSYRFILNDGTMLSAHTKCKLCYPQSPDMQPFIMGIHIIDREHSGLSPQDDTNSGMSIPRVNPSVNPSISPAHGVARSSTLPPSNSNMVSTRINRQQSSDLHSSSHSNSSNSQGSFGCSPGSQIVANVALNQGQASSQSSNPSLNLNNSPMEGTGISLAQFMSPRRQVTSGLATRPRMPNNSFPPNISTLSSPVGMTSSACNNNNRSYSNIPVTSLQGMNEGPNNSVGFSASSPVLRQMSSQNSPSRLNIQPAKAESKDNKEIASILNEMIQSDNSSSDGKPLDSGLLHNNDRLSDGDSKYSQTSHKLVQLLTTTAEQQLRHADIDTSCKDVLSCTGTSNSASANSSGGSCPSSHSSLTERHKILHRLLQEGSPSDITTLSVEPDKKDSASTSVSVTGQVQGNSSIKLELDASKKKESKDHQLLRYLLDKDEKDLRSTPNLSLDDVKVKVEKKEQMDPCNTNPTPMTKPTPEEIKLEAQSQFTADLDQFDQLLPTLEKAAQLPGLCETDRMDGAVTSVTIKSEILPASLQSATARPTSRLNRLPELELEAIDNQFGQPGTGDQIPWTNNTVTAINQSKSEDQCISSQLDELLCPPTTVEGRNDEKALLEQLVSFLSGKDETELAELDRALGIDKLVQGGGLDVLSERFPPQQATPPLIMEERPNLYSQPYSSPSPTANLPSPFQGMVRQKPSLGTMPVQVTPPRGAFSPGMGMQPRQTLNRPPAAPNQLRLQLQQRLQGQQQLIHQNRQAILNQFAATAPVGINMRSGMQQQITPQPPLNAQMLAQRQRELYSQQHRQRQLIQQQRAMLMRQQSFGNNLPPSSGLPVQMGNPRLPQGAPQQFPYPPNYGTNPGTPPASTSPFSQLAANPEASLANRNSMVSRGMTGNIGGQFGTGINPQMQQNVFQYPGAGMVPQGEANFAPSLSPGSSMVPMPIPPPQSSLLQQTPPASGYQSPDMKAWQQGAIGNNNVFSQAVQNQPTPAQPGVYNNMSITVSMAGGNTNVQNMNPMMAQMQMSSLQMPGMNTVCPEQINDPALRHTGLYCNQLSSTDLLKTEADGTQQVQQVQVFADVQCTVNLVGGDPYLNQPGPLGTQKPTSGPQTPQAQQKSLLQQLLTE
As to `CC(=O)/C(N=Nc1ccc2c(c1)OCCO2)=C(\C)O`, the IC50 was > 35.9 µM (inactive).

As to `COc1ccc(OC)c(Cc2cnc3nc(N)nc(N)c3c2C)c1`, the IC50 was > 35.9 µM (inactive).

As to `NC(=O)c1cc(Sc2ccccc2)nc2ccccc12`, the IC50 entry is “inactive”. For the compound `COc1cc2oc(=O)cc(-c3ccc(-c4ccc(CO)cc4)cc3)c2c(OC)c1OC`, the IC50 is 8.05 µM. In the case of `NS(=O)(=O)c1ccc(Sc2nc3ccccc3s2)c([N+](=O)[O-])c1`, the IC50 is > 35.9 µM (inactive).

Take `Cc1nnc(SC(=O)N2c3ccccc3Sc3ccccc32)s1`: the IC50 is > 35.9 µM (inactive).

Consider `O=C(CCl)N(c1ccccc1)C1CCS(=O)(=O)C1` (configuration not stated), for which the IC50 entry was “inactive”. With `CC(C)(C)c1ccc(Oc2ccc(N)cn2)cc1`, the IC50 result is “inactive”. `CCCC(=O)NC(c1ccc(Cl)cc1)c1ccc2cccnc2c1O` (configuration not stated): the concentration for half-maximal inhibition (IC50) was 8.71 µM.

Regarding `O=S(=O)(/C(=C\c1ccc(C(F)(F)F)cc1)c1nc2ccccc2[nH]1)c1ccccc1`, the IC50 was > 12 µM (inactive). `O=C(NCCc1ccccc1)c1ccc2c(c1)OCCO2`: the IC50 entry is “inactive”. On to `O=S(=O)(c1ccc(F)cc1)c1snnc1-c1ccccc1`, for which the IC50 is > 35.9 µM (inactive). On to `CCOc1ccc(CC(=O)Nc2ccc(NC(=O)c3ccco3)cc2)cc1OCC`, for which the 50% inhibitory concentration (IC50) was 4.28 µM.

Regarding `Cc1cccc(NC(=O)c2cc(Cl)ccc2[N+](=O)[O-])c1`, the IC50 entry was “inactive”. Consider `Cc1cc(C(=O)CN2C(=O)c3ccccc3S2(=O)=O)c(C)n1C(C)C`, for which the IC50 entry was “inactive”. Regarding `CN(Cc1cnc2nc(N)nc(N)c2n1)c1ccc(C(=O)NC(CCC(=O)O)C(=O)O)cc1` (configuration not stated), the IC50 was > 35.9 µM (inactive). For `Cc1ccc(NC(=O)c2cc(C)n(-c3ccccc3)c2C)cc1`, the IC50 was > 35.9 µM (inactive). Consider `Nc1nccc(-c2ccc(-n3cnc4ccccc43)cc2)n1`, for which the IC50 was 2.23 µM. As for `CCC(=O)c1ccc(O)c(CC=C(C)C)c1`, the IC50 result was “inactive”. Take `COc1ccccc1C(=O)N(CCC1CCCN1C)c1nc2ccccc2s1` (configuration not stated): the IC50 is > 35.9 µM (inactive).

On to `COc1cc2c(c(OC)c1OC)-c1ccc(SC)c(=O)cc1C(NC=O)CC2` (configuration not stated), for which the IC50 is > 35.9 µM (inactive).

On to `Cc1ccc(N=c2c([N+](=O)[O-])nn(-c3ccc4c(c3)OCCO4)n2O)cc1F`, for which the IC50 was > 35.9 µM (inactive).

`c1ccc(-c2noc(-c3ccc4ccccc4c3)n2)nc1`: the IC50 entry is “inactive”. As to `O=C(OCc1ccccc1)c1ccc(NCc2cc(O)ccc2O)cc1`, the IC50 is > 12 µM (inactive). Consider `COc1ccc(-c2cn[nH]c2-c2ccc(OC)cc2O)cc1`, for which the IC50 was 8.83 µM.

For the compound `Nc1ncnc(NCc2ccccc2)c1[N+](=O)[O-]`, the IC50 result is “inactive”. For `CCc1nc(N)nc(N)c1-c1ccc(Cl)c([N+](=O)[O-])c1`, the IC50 was 0.603 µM. Regarding `CCCC(=O)NC(c1ccc2c(c1)OCO2)c1cc(Cl)c2cccnc2c1O` (configuration not stated), the IC50 is 7.24 µM. As for `Cc1cc(/C=C2\Cc3ccccc3C2=O)c(C)n1-c1ccccc1`, the IC50 entry was “inactive”. As to `COc1cccc(CNc2ncnc3ccc(-c4c(C)noc4C)cc23)c1`, the IC50 is > 35.9 µM (inactive). Turning to `COc1ccc(/C=C2/SC(=S)N(CCC(=O)O)C2=O)cc1`, the IC50 was > 35.9 µM (inactive). In the case of `Cc1sc2ncnc(N3CCC(C(=O)Nc4ccccc4C(C)(C)C)CC3)c2c1C` it was 7.15 µM; in that of `COc1cccc(-c2nnc3sc(C4CCCCC4)nn23)c1`, 3.46 µM; in that of `CCOC(=O)C(=CNc1ccc(NC2=NCC(C)S2)cc1)C(=O)OCC` (configuration not stated), > 35.8 µM (inactive). For the compound `Cc1ncc(CO)c(/C=N/NC(=O)c2cc3c(s2)CCCC3)c1O`, the IC50 entry was “inactive”. On to `NC(=S)N/N=C1\CCSc2ccc(Cl)cc21`, for which the IC50 was > 35.8 µM (inactive). On to `CN1CCN(c2ccc(NC(=O)N3CCc4ccccc43)cc2)CC1`, for which the IC50 was > 35.9 µM (inactive).
